In ChEMBL document CHEMBL5126543, “Tandem construction of biological relevant aliphatic 5-membered N-heterocycles” (Eur J Med Chem, 2022):
Values after ≈ are worked out from the molar mass of the structure shown. Where a SMILES comes first, the peptide text is derived from it. [ ]: non-standard residue; d: D form. Pro(trans-4-cHex) = O=C(O)[C@@H]1C[C@@H](C2CCCCC2)CN1; Pro(trans-4-Ph) = O=C(O)[C@@H]1C[C@@H](c2ccccc2)CN1; Pro(cis-4-OPh) = O=C(O)[C@@H]1C[C@H](Oc2ccccc2)CN1; Pro(cis-4-CF3) = O=C(O)[C@@H]1C[C@H](C(F)(F)F)CN1; Pro(4R-Bn) = O=C(O)[C@@H]1C[C@@H](Cc2ccccc2)CN1; Pro(cis-4-F) = O=C(O)[C@@H]1C[C@H](F)CN1; Pro(4S-NH2) = N[C@@H]1CN[C@H](C(=O)O)C1

Assays:
C32 = test: Antiproliferative activity against human C32 cells measured after 72 hrs by WST-1 assay; format: functional, cell-based; conditions: C32, 72 h
MDA-MB-231 = test: Antiproliferative activity against human MDA-MB-231 cells measured after 72 hrs by WST-1 assay; format: functional, cell-based; conditions: MDA-MB-231, 72 h
SNB-19 = test: Antiproliferative activity against human SNB-19 cells measured after 72 hrs by WST-1 assay; format: functional, cell-based; conditions: SNB-19, 72 h
[1] = Cytotoxicity against HFF-1 cells measured after 72 hrs by WST-1 assay; format: toxicity, cell-based; conditions: human
Escherichia coli = test: Antimicrobial activity against Escherichia coli ATCC 25922 incubated for 18 to 20 hrs; format: functional; conditions: time 18-20 hrs
[2] = system: Staphylococcus epidermidis; test: Antimicrobial activity against Staphylococcus epidermidis ATCC 12228 incubated for 18 to 20 hrs; format: functional; conditions: time 18-20 hrs
Priestia megaterium = test: Antimicrobial activity against Bacillus megaterium Bm11 incubated for 18 to 20 hrs; format: functional; conditions: time 18-20 hrs
Pseudomonas aeruginosa = test: Antimicrobial activity against Pseudomonas aeruginosa ATCC 27853 incubated for 18 to 20 hrs; format: functional; conditions: time 18-20 hrs
Candida albicans = test: Antimicrobial activity against Candida albicans ATCC 24433 incubated for 18 to 20 hrs; format: functional; conditions: time 18-20 hrs
SK-BR-3 = test: Cytotoxicity against human SK-BR-3 cells treated for 72 hrs by MTT assay; format: functional, cell-based; conditions: SK-BR-3, 72 h
MCF7 = test: Cytotoxicity against human MCF7 cells treated for 72 hrs by MTT assay; format: functional, cell-based; conditions: MCF7, 72 h
PC-3 = test: Cytotoxicity against human PC-3 cells treated for 72 hrs by MTT assay; format: functional, cell-based; conditions: PC-3, 72 h
HeLa = test: Cytotoxicity against human HeLa cells treated for 72 hrs by MTT assay; format: functional, cell-based

SMILES: CCN(CC)CC#CCSc1nc(SCC#CCN(CC)CC)c2c(ncn2C)n1
- IC50 (C32): 23.9 µM
- IC50 (MDA-MB-231): 38.5 µM
- IC50 (SNB-19): 48.9 µM
- IC50 at 72 h [1]: 5.95 µM

SMILES: Cn1c(SCC#CCN2CCCCC2)nc2nc(Cl)nc(SCC#CCN3CCCCC3)c21
- IC50 (C32): 19.1 µM
- IC50 (MDA-MB-231): 38.1 µM
- IC50 (SNB-19): 11.6 µM
- IC50 at 72 h [1]: 5.5 µM

SMILES: CCN(CC)CC#CCSc1nc2c(c(=O)[nH]c(=O)n2C)n1C
- IC50 (C32): 26.4 µM
- IC50 (MDA-MB-231): 68.1 µM
- IC50 (SNB-19): 1.48 µM
- IC50 at 72 h [1]: 3.68 µM

SMILES: Cn1c(SCC#CCN2CCOCC2)nc2nc(Cl)nc(SCC#CCN3CCOCC3)c21
- IC50 (C32): 4.08 µM
- IC50 (MDA-MB-231): 74 µM
- IC50 (SNB-19): 26.1 µM
- IC50 at 72 h [1]: 36.4 µM

SMILES: Cn1c(SCC#CCN2CCOCC2)nc2c1c(=O)[nH]c(=O)n2C
- IC50 (C32): 22.7 µM
- IC50 (MDA-MB-231): 6.54 µM
- IC50 (SNB-19): 1.39 µM
- IC50 at 72 h [1]: 5.87 µM

SMILES: Cn1cnc2nc(SCC#CCN3CCCCC3)nc(SCC#CCN3CCCCC3)c21
- IC50 (C32): 6.39 µM
- IC50 (MDA-MB-231): 7.35 µM
- IC50 (SNB-19): 4.64 µM
- IC50 at 72 h [1]: 3.98 µM

SMILES: CCN(CC)CC#CCSc1nc(Cl)nc2nc(SCC#CCN(CC)CC)n(C)c12
- IC50 (C32): 5.33 µM
- IC50 (MDA-MB-231): 10 µM
- IC50 (SNB-19): 2.91 µM
- IC50 at 72 h [1]: 1 µM

SMILES: Cn1cnc2nc(SCC#CCN3CCCC3)nc(SCC#CCN3CCCC3)c21
- IC50 (C32): 6.81 µM
- IC50 (MDA-MB-231): 19.9 µM
- IC50 (SNB-19): 19.4 µM
- IC50 at 72 h [1]: 10 µM

SMILES: CC[C@H](C)[C@H](NC(=O)[C@H](CCCNC(=N)N)NC(=O)CNC(=O)[C@H](CC(C)C)NC(=O)[C@H](Cc1ccccc1)NC(=O)[C@H](CCCCN)NC(=O)[C@H](CO)NC(=O)[C@H](Cc1ccccc1)NC(=O)[C@H](Cc1c[nH]c2ccccc12)NC(=O)[C@H](CCC(N)=O)NC(=O)[C@@H]1C[C@@H](Cc2ccccc2)CN1C(=O)[C@@H](NC(=O)[C@@H](N)Cc1ccccc1)C(C)C)C(=O)N[C@@H](CC(C)C)C(N)=O (H-FV[Pro(4R-Bn)]QWFSKFLGRIL-NH2)
- MIC (Escherichia coli): 25 µM (≈ 45.7 µg/mL)
- MIC [2]: 3.12 µM (≈ 5.7 µg/mL)
- MIC (Priestia megaterium): 3.12 µM (≈ 5.7 µg/mL)
- MIC (Pseudomonas aeruginosa): 50 µM (≈ 91.4 µg/mL)
- MIC (Candida albicans): 25 µM (≈ 45.7 µg/mL)

SMILES: CC[C@H](C)[C@H](NC(=O)[C@H](CCCNC(=N)N)NC(=O)CNC(=O)[C@H](CC(C)C)NC(=O)[C@H](Cc1ccccc1)NC(=O)[C@H](CCCCN)NC(=O)[C@H](CO)NC(=O)[C@H](Cc1ccccc1)NC(=O)[C@H](Cc1c[nH]c2ccccc12)NC(=O)[C@H](CCC(N)=O)NC(=O)[C@@H]1C[C@H](N)CN1C(=O)[C@@H](NC(=O)[C@@H](N)Cc1ccccc1)C(C)C)C(=O)N[C@@H](CC(C)C)C(N)=O (H-FV[Pro(4S-NH2)]QWFSKFLGRIL-NH2)
- MIC (Escherichia coli): 3.12 µM (≈ 5.47 µg/mL)
- MIC [2]: 3.12 µM (≈ 5.47 µg/mL)
- MIC (Priestia megaterium): 3.12 µM (≈ 5.47 µg/mL)
- MIC (Pseudomonas aeruginosa): 3.12 µM (≈ 5.47 µg/mL)
- MIC (Candida albicans): 12.5 µM (≈ 21.9 µg/mL)

SMILES: CC[C@H](C)[C@H](NC(=O)[C@H](CCCNC(=N)N)NC(=O)CNC(=O)[C@H](CC(C)C)NC(=O)[C@H](Cc1ccccc1)NC(=O)[C@H](CCCCN)NC(=O)[C@H](CO)NC(=O)[C@H](Cc1ccccc1)NC(=O)[C@H](Cc1c[nH]c2ccccc12)NC(=O)[C@H](CCC(N)=O)NC(=O)[C@@H]1C[C@H](C(F)(F)F)CN1C(=O)[C@@H](NC(=O)[C@@H](N)Cc1ccccc1)C(C)C)C(=O)N[C@@H](CC(C)C)C(N)=O (H-FV[Pro(cis-4-CF3)]QWFSKFLGRIL-NH2)
- MIC (Escherichia coli): 12.5 µM (≈ 22.6 µg/mL)
- MIC [2]: 3.12 µM (≈ 5.63 µg/mL)
- MIC (Priestia megaterium): 3.12 µM (≈ 5.63 µg/mL)
- MIC (Pseudomonas aeruginosa): 25 µM (≈ 45.1 µg/mL)
- MIC (Candida albicans): 12.5 µM (≈ 22.6 µg/mL)

SMILES: CC[C@H](C)[C@H](NC(=O)[C@H](CCCNC(=N)N)NC(=O)CNC(=O)[C@H](CC(C)C)NC(=O)[C@H](Cc1ccccc1)NC(=O)[C@H](CCCCN)NC(=O)[C@H](CO)NC(=O)[C@H](Cc1ccccc1)NC(=O)[C@H](Cc1c[nH]c2ccccc12)NC(=O)[C@H](CCC(N)=O)NC(=O)[C@@H]1C[C@H](F)CN1C(=O)[C@@H](NC(=O)[C@@H](N)Cc1ccccc1)C(C)C)C(=O)N[C@@H](CC(C)C)C(N)=O (H-FV[Pro(cis-4-F)]QWFSKFLGRIL-NH2)
- MIC (Escherichia coli): 12.5 µM (≈ 21.9 µg/mL)
- MIC [2]: 3.12 µM (≈ 5.48 µg/mL)
- MIC (Priestia megaterium): 3.12 µM (≈ 5.48 µg/mL)
- MIC (Pseudomonas aeruginosa): 12.5 µM (≈ 21.9 µg/mL)
- MIC (Candida albicans): 12.5 µM (≈ 21.9 µg/mL)

SMILES: CC[C@H](C)[C@H](NC(=O)[C@H](CCCNC(=N)N)NC(=O)CNC(=O)[C@H](CC(C)C)NC(=O)[C@H](Cc1ccccc1)NC(=O)[C@H](CCCCN)NC(=O)[C@H](CO)NC(=O)[C@H](Cc1ccccc1)NC(=O)[C@H](Cc1c[nH]c2ccccc12)NC(=O)[C@H](CCC(N)=O)NC(=O)[C@@H]1C[C@H](Oc2ccccc2)CN1C(=O)[C@@H](NC(=O)[C@@H](N)Cc1ccccc1)C(C)C)C(=O)N[C@@H](CC(C)C)C(N)=O (H-FV[Pro(cis-4-OPh)]QWFSKFLGRIL-NH2)
- MIC (Escherichia coli): 25 µM (≈ 45.7 µg/mL)
- MIC [2]: 3.12 µM (≈ 5.71 µg/mL)
- MIC (Priestia megaterium): 3.12 µM (≈ 5.71 µg/mL)
- MIC (Pseudomonas aeruginosa): 50 µM (≈ 91.5 µg/mL)
- MIC (Candida albicans): 12.5 µM (≈ 22.9 µg/mL)

SMILES: CC[C@H](C)[C@H](NC(=O)[C@H](CCCNC(=N)N)NC(=O)CNC(=O)[C@H](CC(C)C)NC(=O)[C@H](Cc1ccccc1)NC(=O)[C@H](CCCCN)NC(=O)[C@H](CO)NC(=O)[C@H](Cc1ccccc1)NC(=O)[C@H](Cc1c[nH]c2ccccc12)NC(=O)[C@H](CCC(N)=O)NC(=O)[C@@H]1C[C@@H](c2ccccc2)CN1C(=O)[C@@H](NC(=O)[C@@H](N)Cc1ccccc1)C(C)C)C(=O)N[C@@H](CC(C)C)C(N)=O (H-FV[Pro(trans-4-Ph)]QWFSKFLGRIL-NH2)
- MIC (Escherichia coli): 12.5 µM (≈ 22.7 µg/mL)
- MIC [2]: 3.12 µM (≈ 5.66 µg/mL)
- MIC (Priestia megaterium): 3.12 µM (≈ 5.66 µg/mL)
- MIC (Pseudomonas aeruginosa): 50 µM (≈ 90.7 µg/mL)
- MIC (Candida albicans): 12.5 µM (≈ 22.7 µg/mL)

SMILES: CC[C@H](C)[C@H](NC(=O)[C@H](CCCNC(=N)N)NC(=O)CNC(=O)[C@H](CC(C)C)NC(=O)[C@H](Cc1ccccc1)NC(=O)[C@H](CCCCN)NC(=O)[C@H](CO)NC(=O)[C@H](Cc1ccccc1)NC(=O)[C@H](Cc1c[nH]c2ccccc12)NC(=O)[C@H](CCC(N)=O)NC(=O)[C@@H]1C[C@@H](C2CCCCC2)CN1C(=O)[C@@H](NC(=O)[C@@H](N)Cc1ccccc1)C(C)C)C(=O)N[C@@H](CC(C)C)C(N)=O (H-FV[Pro(trans-4-cHex)]QWFSKFLGRIL-NH2)
- MIC (Escherichia coli): 50 µM (≈ 91 µg/mL)
- MIC [2]: 3.12 µM (≈ 5.68 µg/mL)
- MIC (Priestia megaterium): 3.12 µM (≈ 5.68 µg/mL)
- MIC (Pseudomonas aeruginosa): 100 µM (≈ 182 µg/mL)
- MIC (Candida albicans): 25 µM (≈ 45.5 µg/mL)

SMILES: COc1cc2c(c(OC)c1OC)-c1ccc(OC)c(=O)cc1[C@@H](NC(C)=O)CC2 [COLCHICINE]
- IC50 (SK-BR-3): 0.04 µM
- IC50 (MCF7): 25 µM
- IC50 (PC-3): 0.03 µM

SMILES: COc1cccc2c1C(=O)c1c(O)c3c(c(O)c1C2=O)C[C@@](O)(C(=O)CO)C[C@@H]3O[C@H]1C[C@H](N)[C@H](O)[C@H](C)O1 [DOXORUBICIN]
- IC50 (HeLa): 2.45 µM
- IC50 (SK-BR-3): 2.36 µM
- IC50 (MCF7): 3.62 µM
- IC50 (PC-3): 1.66 µM
